Results taken from PubChem BioAssay (NCI).
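Following 48 hours of exposure in 96-well plates, responses at five concentrations were used to interpolate endpoints linearly. The concentration for full growth arrest is given as TGI.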

Columns and labels:
Assay in all cases: NCI-60 cell line screen, 48 h
786-0 renal = tested on: 786-0 renal
A498 renal = tested on: A498 renal
A549 NSCLC = tested on: A549 NSCLC
ACHN renal = tested on: ACHN renal
BT-549 breast = tested on: BT-549 breast
CAKI-1 renal = tested on: CAKI-1 renal
COLO 205 colon = tested on: COLO 205 colon
DU-145 prostate = tested on: DU-145 prostate
HCC-2998 colon = tested on: HCC-2998 colon
HCT-116 colon = tested on: HCT-116 colon
HCT-15 colon = tested on: HCT-15 colon
HOP-62 NSCLC = tested on: HOP-62 NSCLC
HOP-92 NSCLC = tested on: HOP-92 NSCLC
K-562 leukemia = tested on: K-562 leukemia
KM12 colon = tested on: KM12 colon
M14 melanoma = tested on: M14 melanoma
MALME-3M melanoma = tested on: MALME-3M melanoma
MCF7 breast = tested on: MCF7 breast
MDA-MB-231 breast = tested on: MDA-MB-231 breast
MDA-MB-435 = tested on: MDA-MB-435
MDA-N = tested on: MDA-N
MOLT-4 leukemia = tested on: MOLT-4 leukemia
NCI-H226 lung = tested on: NCI-H226 lung
NCI-H23 lung = tested on: NCI-H23 lung
NCI-H460 lung = tested on: NCI-H460 lung
NCI-H522 lung = tested on: NCI-H522 lung
NCI/ADR-RES ovarian = tested on: NCI/ADR-RES ovarian
OVCAR-3 ovarian = tested on: OVCAR-3 ovarian
OVCAR-4 ovarian = tested on: OVCAR-4 ovarian
PC-3 prostate = tested on: PC-3 prostate
RPMI-8226 leukemia = tested on: RPMI-8226 leukemia
SF-268 CNS = tested on: SF-268 CNS
SF-295 CNS = tested on: SF-295 CNS
SK-MEL-2 melanoma = tested on: SK-MEL-2 melanoma
SK-MEL-28 melanoma = tested on: SK-MEL-28 melanoma
SK-MEL-5 melanoma = tested on: SK-MEL-5 melanoma
SK-OV-3 ovarian = tested on: SK-OV-3 ovarian
SN12C renal = tested on: SN12C renal
SNB-19 CNS = tested on: SNB-19 CNS
SNB-75 CNS = tested on: SNB-75 CNS
T-47D breast = tested on: T-47D breast
TK-10 renal = tested on: TK-10 renal
U251 CNS = tested on: U251 CNS
UACC-257 melanoma = tested on: UACC-257 melanoma
UACC-62 melanoma = tested on: UACC-62 melanoma
UO-31 renal = tested on: UO-31 renal
CCRF-CEM leukemia = tested on: CCRF-CEM leukemia
EKVX NSCLC = tested on: EKVX NSCLC
HL-60(TB) leukemia = tested on: HL-60(TB) leukemia
HS 578T breast = tested on: HS 578T breast
HT29 colon = tested on: HT29 colon
IGROV1 ovarian = tested on: IGROV1 ovarian
LOX IMVI melanoma = tested on: LOX IMVI melanoma
OVCAR-5 ovarian = tested on: OVCAR-5 ovarian
OVCAR-8 ovarian = tested on: OVCAR-8 ovarian
RXF 393 renal = tested on: RXF 393 renal
SF-539 CNS = tested on: SF-539 CNS
SR leukemia = tested on: SR leukemia
SW-620 colon = tested on: SW-620 colon

Measured: TGI

CCCCCCCCCCCCn1c(=O)cc(NCCCC)c2cc3c(NCCCC)cc(=O)n(CCCCCCCCCCCC)c3nc21
not listed: CCRF-CEM leukemia | EKVX NSCLC | HL-60(TB) leukemia | HS 578T breast | HT29 colon | IGROV1 ovarian | LOX IMVI melanoma | OVCAR-5 ovarian | OVCAR-8 ovarian | RXF 393 renal | SF-539 CNS | SR leukemia | SW-620 colon
> 100 µM: all other assays above

CCOC(=O)CC(=O)C(=O)NNC1=NCCCN1
not listed: A498 renal | CAKI-1 renal | NCI-H522 lung | NCI/ADR-RES ovarian | UACC-257 melanoma
> 100 µM: all other assays above
